Data taken from patent publication US11987586B1 (TAKEDA PHARMACEUTICAL COMPANY LIMITED, priority 2022, dated 2024).

biological target: T1, human OX2 receptor (Homo sapiens, UniProt O43614); experiment: Measurement of orexin type 2 receptor agonist activity (calcium fluorescence, Fluo-4, FDSS); type: cell-based; conditions: 3 uM test compound; CHO cells expressing human OX2 receptor; DMSO = 0%, 10 nM orexin A (human) = 100%
T1 construct: expressed in transfected cells
T1 sequence (O43614 1-444): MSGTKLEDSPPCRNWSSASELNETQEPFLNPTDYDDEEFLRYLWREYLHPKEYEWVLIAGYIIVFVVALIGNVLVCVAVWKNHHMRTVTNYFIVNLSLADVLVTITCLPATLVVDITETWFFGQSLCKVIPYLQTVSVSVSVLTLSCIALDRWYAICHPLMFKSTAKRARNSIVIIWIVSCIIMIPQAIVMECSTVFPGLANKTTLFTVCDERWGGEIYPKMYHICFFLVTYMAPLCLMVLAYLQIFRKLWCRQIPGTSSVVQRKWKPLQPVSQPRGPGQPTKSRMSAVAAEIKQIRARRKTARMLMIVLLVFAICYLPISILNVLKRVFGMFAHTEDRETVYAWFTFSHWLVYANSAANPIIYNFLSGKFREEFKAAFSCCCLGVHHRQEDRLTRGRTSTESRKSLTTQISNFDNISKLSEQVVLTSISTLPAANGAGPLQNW
Procedure, shortened: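 CHO-K1 cells stably expressing human OX2 receptor (residues 1-444) were loaded with Fluo-4 AM plus probenecid. Calcium fluorescence after compound addition was recorded for 1 min 40 s. Activity (%) was scaled between DMSO (0%) and 10 nM orexin A final (100%).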

First: CN(C)S(=O)(=O)N[C@@H]1Cn2c(cn(-c3noc4ccc(F)c(-c5c(F)cc(F)cc5F)c34)c2=O)C1(F)F [Example 264, N′-{(6R)-7,7-difluoro-2-[5-fluoro-4-(2,4,6-trifluorophenyl)-1,2-benzoxazol-3-yl]-3-oxo-2,5,6,7-tetrahydro-3H-pyrrolo[1,2-c]imidazol-6-yl}-N,N-dimethylsulfuric diamide]
Second: CCS(=O)(=O)N[C@@H]1Cn2c(cn(-c3noc4cc(F)c(F)c(-c5c(F)cc(F)cc5F)c34)c2=O)C1(F)F [Example 121, N-{(6R)-2-[5,6-difluoro-4-(2,4,6-trifluorophenyl)-1,2-benzoxazol-3-yl]-7,7-difluoro-3-oxo-2,5,6,7-tetrahydro-3H-pyrrolo[1,2-c]imidazol-6-yl}ethanesulfonamide]
The “OX2R agonist activity (3 uM, %)” value of the first is higher: 107% for the first, 93% for the second.

Going from `COCS(=O)(=O)N[C@H]1C[C@H]2CN(c3noc4cccc(-c5c(F)cccc5F)c34)C(=O)N2C1` [Example 20, N-{(6S,7aS)-2-[4-(2,6-difluorophenyl)-1,2-benzoxazol-3-yl]-3-oxohexahydro-1H-pyrrolo[1,2-c]imidazol-6-yl}-1-methoxymethanesulfonamide] to `CCS(=O)(=O)NC1CN2C(=O)N(c3noc4cccc(-c5c(F)cccc5F)c34)C[C@@H]2C1C` (stereo in doubt) [Example 183, N-{(6R*,7S*,7aS)-2-[4-(2,6-difluorophenyl)-1,2-benzoxazol-3-yl]-7-methyl-3-oxohexahydro-1H-pyrrolo[1,2-c]imidazol-6-yl}ethanesulfonamide], the “OX2R agonist activity (3 uM, %)” value rises from 97% to 101%.

First: CCS(=O)(=O)N[C@H]1Cn2c(cn(-c3noc4cccc(-c5c(F)cccc5F)c34)c2=O)[C@@H]1C (relative stereo) [Example 131, rel-N-{(6R, 7R)-2-[4-(2,6-difluorophenyl)-1,2-benzoxazol-3-yl]-7-methyl-3-oxo-2,5,6,7-tetrahydro-3H-pyrrolo[1,2-c]imidazol-6-yl}ethanesulfonamide]
Second: CCS(=O)(=O)N[C@H]1Cn2c(cn(-c3noc4cccc(-c5c(F)cccc5F)c34)c2=O)[C@H]1C (relative stereo) [Example 109, rel-N-{(6R,7S)-2-[4-(2,6-difluorophenyl)-1,2-benzoxazol-3-yl]-7-methyl-3-oxo-2,5,6,7-tetrahydro-3H-pyrrolo[1,2-c]imidazol-6-yl}ethanesulfonamide]
The “OX2R agonist activity (3 uM, %)” value of the first is lower: 96% for the first, 103% for the second.

Compared with `CCS(=O)(=O)N[C@@H]1CN2C(=O)N(c3noc4cc(C)cc(-c5c(F)cccc5F)c34)C[C@@H]2C1(F)F` [Example 154, N-{(6R,7aR)-2-[4-(2,6-difluorophenyl)-6-methyl-1,2-benzoxazol-3-yl]-7,7-difluoro-3-oxohexahydro-1H-pyrrolo[1,2-c]imidazol-6-yl}ethanesulfonamide], `CCS(=O)(=O)N[C@@H]1CN2C(=O)N(c3noc4cc(C)nc(-c5c(F)cccc5F)c34)CC[C@@H]2C1(F)F` [Example 275, N-{(4aR,6R)-2-[4-(2,6-difluorophenyl)-6-methyl[1,2]oxazolo[4,5-c]pyridin-3-yl]-5,5-difluoro-1-oxooctahydropyrrolo[1,2-c]pyrimidin-6-yl}ethanesulfonamide] is higher in “OX2R agonist activity (3 uM, %)” value: 98% for the first, 103% for the second.

Compared with `CS(=O)(=O)N[C@@H]1CN2C(=O)N(c3noc4cc(F)c(F)c(-c5c(F)cccc5F)c34)CC[C@@H]2C1(F)F` [Example 252, N-{(4aR,6R)-2-[4-(2,6-difluorophenyl)-5,6-difluoro-1,2-benzoxazol-3-yl]-5,5-difluoro-1-oxooctahydropyrrolo[1,2-c]pyrimidin-6-yl}methanesulfonamide], `CS(=O)(=O)N[C@@H]1CN2C(=O)N(c3noc4ccc(F)c(-c5c(F)cccc5F)c34)C[C@@H]2C1(F)F` [Example 38, N-{(6R,7aR)-2-[4-(2,6-difluorophenyl)-5-fluoro-1,2-benzoxazol-3-yl]-7,7-difluoro-3-oxohexahydro-1H-pyrrolo[1,2-c]imidazol-6-yl}methanesulfonamide] is higher in “OX2R agonist activity (3 uM, %)” value: 96% for the first, 111% for the second.

Going from `Cc1cc2onc(-n3cc4n(c3=O)C[C@@H](NS(=O)(=O)CF)C4(F)F)c2c(-c2c(F)cc(F)cc2F)n1` [Example 201, N-{(6R)-7,7-difluoro-2-[6-methyl-4-(2,4,6-trifluorophenyl)[1,2]oxazolo[4,5-c]pyridin-3-yl]-3-oxo-2,5,6,7-tetrahydro-3H-pyrrolo[1,2-c]imidazol-6-yl}-1-fluoromethanesulfonamide] to `Cc1cc(-c2c(F)cc(F)cc2F)c2c(-n3cc4n(c3=O)C[C@@H](NS(C)(=O)=O)C4(F)F)noc2n1` [Example 174, N-{(6R)-7,7-Difluoro-2-[6-methyl-4-(2,4,6-trifluorophenyl) [1,2]oxazolo [5,4-b]pyridin-3-yl]-3-oxo-2,5,6,7-tetrahydro-3H-pyrrolo[1,2-c]imidazol-6-yl}methanesulfonamide], the “OX2R agonist activity (3 uM, %)” value falls from 114% to 95%.

Compared with `Cc1cc2onc(N3C[C@H]4N(C[C@@H](NS(C)(=O)=O)C4(F)F)C3=O)c2c(-c2c(F)cc(F)cc2F)c1F` [Example 119, N-{(6R,7aR)-7,7-difluoro-2-[5-fluoro-6-methyl-4-(2,4,6-trifluorophenyl)-1,2-benzoxazol-3-yl]-3-oxohexahydro-1H-pyrrolo[1,2-c]imidazol-6-yl}methanesulfonamide], `Cc1cc2onc(N3C[C@H]4N(C[C@@H](NS(C)(=O)=O)C4(F)F)C3=O)c2c(-c2c(F)cc(F)cc2F)n1` [Example 191, N-{(6R,7aR)-7,7-difluoro-2-[6-methyl-4-(2,4,6-trifluorophenyl)[1,2]oxazolo[4,5-c]pyridin-3-yl]-3-oxohexahydro-1H-pyrrolo[1,2-c]imidazol-6-yl}methanesulfonamide] is lower in “OX2R agonist activity (3 uM, %)” value: 105% for the first, 98% for the second.

Going from `CCS(=O)(=O)N[C@@H]1CN2C(=O)N(c3noc4cc(C)nc(-c5c(F)cc(F)cc5F)c34)CC[C@@H]2C1(F)F` [Example 220, N-{(4aR,6R)-5,5-difluoro-2-[6-methyl-4-(2,4,6-trifluorophenyl)[1,2]oxazolo[4,5-c]pyridin-3-yl]-1-oxooctahydropyrrolo[1,2-c]pyrimidin-6-yl}ethanesulfonamide] to `CCS(=O)(=O)N[C@@H]1CN2C(=O)N(c3noc4cccc(-c5ccc(F)cc5Cl)c34)CC[C@@H]2C1(F)F` [Example 329, N-{(4aR,6R)-2-[4-(2-chloro-4-fluorophenyl)-1,2-benzoxazol-3-yl]-5,5-difluoro-1-oxooctahydropyrrolo[1,2-c]pyrimidin-6-yl}ethanesulfonamide], the “OX2R agonist activity (3 uM, %)” value falls from 112% to 101%.

`CS(=O)(=O)N[C@@H]1CN2C(=O)N(c3noc4cccc(-c5c(F)cccc5F)c34)C[C@@H]2C1(F)F` [Example 34, N-{(6R,7aR)-2-[4-(2,6-Difluorophenyl)-1,2-benzoxazol-3-yl]-7,7-difluoro-3-oxohexahydro-1H-pyrrolo[1,2-c]imidazol-6-yl}methanesulfonamide] and `CS(=O)(=O)N[C@@H]1CN2C(=O)N(c3noc4cccc(-c5ccc(F)cc5F)c34)CC[C@@H]2C1(F)F` [Example 290, N-{(4aR,6R)-2-[4-(2,4-difluorophenyl)-1,2-benzoxazol-3-yl]-5,5-difluoro-1-oxooctahydropyrrolo[1,2-c]pyrimidin-6-yl}methanesulfonamide] are the same in “OX2R agonist activity (3 uM, %)” value: 106% for the first, 106% for the second.

Compared with `CCS(=O)(=O)N[C@@H]1Cn2c(cn(-c3noc4cc(COC)c(F)c(-c5c(F)cccc5F)c34)c2=O)C1(F)F` [Example 212, N-{(6R)-2-[4-(2,6-difluorophenyl)-5-fluoro-6-(methoxymethyl)-1,2-benzoxazol-3-yl]-7,7-difluoro-3-oxo-2,5,6,7-tetrahydro-3H-pyrrolo[1,2-c]imidazol-6-yl}ethanesulfonamide], `CCS(=O)(=O)N[C@@H]1Cn2c(cn(-c3noc4cc(OC(F)F)cc(-c5c(F)cc(F)cc5F)c34)c2=O)C1(F)F` [Example 179, N-{(6R)-2-[6-(difluoromethoxy)-4-(2,4,6-trifluorophenyl)-1,2-benzoxazol-3-yl]-7,7-difluoro-3-oxo-2,5,6,7-tetrahydro-3H-pyrrolo[1,2-c]imidazol-6-yl}ethanesulfonamide] is higher in “OX2R agonist activity (3 uM, %)” value: 100% for the first, 109% for the second.

First: CS(=O)(=O)N[C@@H]1Cn2c(cn(-c3noc4cc(C(F)(F)F)cc(-c5c(F)cc(F)cc5F)c34)c2=O)C1(F)F [Example 130, N-{(6R)-7,7-difluoro-3-oxo-2-[6-(trifluoromethyl)-4-(2,4,6-trifluorophenyl)-1,2-benzoxazol-3-yl]-2,5,6,7-tetrahydro-3H-pyrrolo[1,2-c]imidazol-6-yl}methanesulfonamide]
Second: CS(=O)(=O)N[C@H]1C[C@H]2CCN(c3noc4cc(C(F)(F)F)cc(-c5c(F)cccc5F)c34)C(=O)N2C1 [Example 251, N-{(4aR,6S)-2-[4-(2,6-difluorophenyl)-6-(trifluoromethyl)-1,2-benzoxazol-3-yl]-1-oxooctahydropyrrolo[1,2-c]pyrimidin-6-yl}methanesulfonamide]
The “OX2R agonist activity (3 uM, %)” value of the first is lower: 99% for the first, 109% for the second.
